Assay results reported in patent US9994551B2, “Pyridazine derivatives as RORc modulators” (Genentech, Inc., priority 2015, dated 2018).

Molecular target: T1, RORc ligand binding domain (Homo sapiens, UniProt P51449)
T1 construct: host or cells: E. coli
T1 sequence (P51449 269-508 limits assumed): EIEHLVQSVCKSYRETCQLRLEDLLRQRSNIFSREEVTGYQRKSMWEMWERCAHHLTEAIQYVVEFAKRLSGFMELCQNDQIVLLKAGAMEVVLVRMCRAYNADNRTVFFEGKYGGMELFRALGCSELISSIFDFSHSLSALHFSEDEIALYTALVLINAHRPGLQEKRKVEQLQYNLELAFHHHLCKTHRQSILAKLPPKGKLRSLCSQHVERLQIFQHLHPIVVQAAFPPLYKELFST
Assay: In vitro RORc ligand binding assay (25-[3H]hydroxycholesterol displacement, filter binding)
Procedure: This assay was used to determine a compound's potency in inhibiting activity of RORc by determining, Kiapp, IC50, or percent inhibition values.
On day of the assay, 100 uL of 0.05% CHAPS (in deionized H2O) was added to all wells of the GFB Unifilter plate and allowed soak for 1 h. A wash buffer of 50 mM HEPES (pH 7.4), 150 mM NaCl, and 5 mM MgCl2 was prepared to wash the filter plate. To prepare an assay buffer, BSA was added to the wash buffer to reach 0.01% and DTT was added to reach 1 mM.
The 20× compound stocks were diluted in DMSO with Assay Buffer 4-fold to reach 5× the final test concentration in 25% DMSO (10 uL compound+30 uL Assay Buffer). Solutions were mixed by aspiration several times with a pipette set on 50 uL volume. For the assay, 10 uL of 5× compound stock solutions in 25% DMSO were added to the assay plate in duplicate.
For two point screening, 10 mM stock compound solutions were diluted in DMSO to obtain 200 uM (20× the high test concentration) and then diluted 10-fold further to reach 20 uM (20× the low test concentration). The 20× stocks were diluted 4-fold with Assay Buffer (10 uL compound+30 uL Assay Buffer) to reach 5× the test concentrations (50 uM and 5 uM) and 10 uL were added to two assay plates for the duplicate wells. With each concentration tested on 2 plates, each set of 80 compounds used 4 assay plates (1 uM and 10 uM, with n=2).
For 25-hydroxycholesterol in 25% DMSO/75% Assay Buffer; 10 uL per well was used for NSB samples. Wells for Total Binding and No Receptor sample determination contained 10 uL of 25% DMSO/75% Assay Buffer per well.
Add 20 uL to all wells to reach 6 nM final concentration in the assay.
Stock receptor solution was diluted in assay buffer to obtain 1.5 ug/mL in Assay Buffer. 20 uL was added to all wells. For No Receptor samples, 20 uL Assay Buffer was substituted for receptor solution.
Assay plates were 96-well polypropylene V-bottom plates. 10 uL of 5× compound in 25% DMSO/75% Assay Buffer was added to Test wells. 10 uL of 25% DMSO/75% Assay Buffer was added to Total Binding or No Receptor wells. 10 uL of 5 uM 25-hydroxycholesterol in 25% DMSO/75% Assay Buffer was added to NSB wells. […] 20 uL of 1.5 ug/mL RORc receptor was added to wells (or 40 uL Assay Buffer to No R wells). Following addition to the wells, the plates were incubated 3 h at 25° C.
Using a Packard Filtermate Harvester, the filter plate were washed 4 times following transfer of the incubated samples. Plates were dry-filtered completely (2 h at 50° C. or overnight at room temperature). 50 uL Microscint 0 was added to all wells and read on Topcount protocol Inverted.

SMILES	IC50 [nM]
CC1(C)[C@H]2CC[C@]1([C@H]1CN(c3ccccn3)CCO1)c1nnc(-c3c(F)cccc3F)cc12 [Compound 82, (S)-2-((5R,8R)-3-(2,6-difluorophenyl)-9,9-dimethyl-5,6,7,8-tetrahydro-5,8-methanocinnolin-8-yl)-4-(pyridin-2-yl)morpholine]	16.7
CC1(C)[C@H]2CC[C@]1(Oc1cncc(C(=O)NCCO)n1)c1nnc(-c3c(F)cccc3F)cc12 [Compound 30, 6-(((5S,8R)-3-(2,6-difluorophenyl)-9,9-dimethyl-5,6,7,8-tetrahydro-5,8-methanocinnolin-8-yl)oxy)-N-(2-hydroxyethyl)pyrazine-2-carboxamide]	836
CC1(C)[C@H]2CC[C@]1(Oc1nccnc1C(=O)NCCO)c1nnc(-c3c(F)cccc3F)cc12 [Compound 18, 3-(((5S,8R)-3-(2,6-difluorophenyl)-9,9-dimethyl-5,6,7,8-tetrahydro-5,8-methanocinnolin-8-yl)oxy)-N-(2-hydroxyethyl)pyrazine-2-carboxamide]	340
CCOC(=O)c1cn2c([C@@]34CC[C@@H](c5cc(-c6c(F)cccc6F)nnc53)C4(C)C)cccc2n1 [Compound 108, ethyl 5-((5R,8S)-3-(2,6-difluorophenyl)-9,9-dimethyl-5,6,7,8-tetrahydro-5,8-methanocinnolin-8-yl)imidazo[1,2-a]pyridine-2-carboxylate]	96
CC[C@@H](O[C@@]12CC[C@@H](c3cc(-c4c(F)cccc4F)nnc31)C2(C)C)C(=O)N1CCCOCC1 [Compound 101, (R)-2-(((5S,8R)-3-(2,6-difluorophenyl)-9,9-dimethyl-5,6,7,8-tetrahydro-5,8-methanocinnolin-8-yl)oxy)-1-(1,4-oxazepan-4-yl)butan-1-one]	148
CC1(C)[C@H]2CC[C@]1([C@@H]1CN(CC(F)F)CCO1)c1nnc(-c3c(F)cccc3F)cc12 [Compound 83, (R)-4-(2,2-difluoroethyl)-2-((5R,8R)-3-(2,6-difluorophenyl)-9,9-dimethyl-5,6,7,8-tetrahydro-5,8-methanocinnolin-8-yl)morpholine]	356
Cc1coc(N2CCO[C@H]([C@@]34CC[C@@H](c5cc(-c6c(F)cccc6F)nnc53)C4(C)C)C2)n1 [Compound 134, 2-[5-(2,6-difluorophenyl)-11,11-dimethyl-3,4-diazatricyclo[6.2.1.02,7]undeca-2,4,6-trien-1-yl]-4-(4-methyloxazol-2-yl)morpholine]	4
CC1(C)[C@H]2CC[C@]1([C@H]1CCCN(C(=O)NCCS(C)(=O)=O)C1)c1nnc(-c3c(F)cccc3F)cc12 [Compound 158, 3-[5-(2,6-difluorophenyl)-11,11-dimethyl-3,4-diazatricyclo[6.2.1.02,7]undeca-2,4,6-trien-1-yl]-N-(2-methylsulfonylethyl)piperidine-1-carboxamide]	13
CC[C@H](O[C@@]12CC[C@@H](c3cc(-c4c(F)cccc4F)nnc31)C2(C)C)C(=O)NCCO [Compound 23, (S)-2-(((5S,8R)-3-(2,6-difluorophenyl)-9,9-dimethyl-5,6,7,8-tetrahydro-5,8-methanocinnolin-8-yl)oxy)-N-(2-hydroxyethyl)butanamide]	44.5
CC[C@@H](O[C@@]12CC[C@@H](c3cc(-c4c(F)cccc4F)nnc31)C2(C)C)C(=O)N1CC(CO)C1 [Compound 38, (R)-2-(((5S,8R)-3-(2,6-difluorophenyl)-9,9-dimethyl-5,6,7,8-tetrahydro-5,8-methanocinnolin-8-yl)oxy)-1-(3-(hydroxymethyl)azetidin-1-yl)butan-1-one]	144
CC1(C)[C@H]2CC[C@]1([C@H]1CCCN(c3cccc(=O)[nH]3)C1)c1nnc(-c3c(F)cccc3F)cc12 [Compound 174, 6-[3-[5-(2,6-difluorophenyl)-11,11-dimethyl-3,4-diazatricyclo[6.2.1.02,7]undeca-2,4,6-trien-1-yl]-1-piperidyl]-1H-pyridin-2-one]	36
CC1(C)[C@H]2CC[C@]1([C@@H]1CN(C(N)=O)CCN1)c1nnc(-c3c(F)cccc3F)cc12 [Compound 184, 3-[5-(2,6-difluorophenyl)-11,11-dimethyl-3,4-diazatricyclo[6.2.1.02,7]undeca-2,4,6-trien-1-yl]piperazine-1-carboxamide]	29
COC(=O)N1CCO[C@@H]([C@@]23CC[C@@H](c4cc(-c5c(F)cccc5F)nnc42)C3(C)C)C1 [Compound 87, (S)-methyl 2-((5R,8R)-3-(2,6-difluorophenyl)-9,9-dimethyl-5,6,7,8-tetrahydro-5,8-methanocinnolin-8-yl)morpholine-4-carboxylate]	36.8
C[C@@H](O)CNC(=O)N1CCC[C@H]([C@@]23CC[C@@H](c4cc(-c5c(F)cccc5F)nnc42)C3(C)C)C1 [Compound 154, 3-[5-(2,6-difluorophenyl)-11,11-dimethyl-3,4-diazatricyclo[6.2.1.02,7]undeca-2,4,6-trien-1-yl]-N-(2-hydroxypropyl)piperidine-1-carboxamide]	15
CCNC(=O)[C@@H](CC)O[C@@]12CC[C@@H](c3cc(-c4c(F)cccc4F)nnc31)C2(C)C [Compound 22, (R)-2-(((5S,8R)-3-(2,6-difluorophenyl)-9,9-dimethyl-5,6,7,8-tetrahydro-5,8-methanocinnolin-8-yl)oxy)-N-ethylbutanamide]	1010
COC(=O)N1CCC[C@H]([C@@]23CC[C@@H](c4cc(-c5c(F)cccc5F)nnc42)C3(C)C)C1 [Compound 99, (R)-methyl 3-((5R,8R)-3-(2,6-difluorophenyl)-9,9-dimethyl-5,6,7,8-tetrahydro-5,8-methanocinnolin-8-yl)piperidine-1-carboxylate]	6.9
CC1(C)[C@H]2CC[C@]1([C@@H]1CN(C(=O)c3cnco3)CCO1)c1nnc(-c3c(F)cccc3F)cc12 [Compound 90, ((R)-2-((5R,8R)-3-(2,6-difluorophenyl)-9,9-dimethyl-5,6,7,8-tetrahydro-5,8-methanocinnolin-8-yl)morpholino)(oxazol-5-yl)methanone]	74.5
CC[C@H](CO)O[C@@]12CC[C@@H](c3cc(-c4c(F)cccc4F)nnc31)C2(C)C [Compound 35, (R)-2-(((5S,8R)-3-(2,6-difluorophenyl)-9,9-dimethyl-5,6,7,8-tetrahydro-5,8-methanocinnolin-8-yl)oxy)butan-1-ol]	19.8
CC(C)(O)CNC(=O)N1CCC[C@H]([C@@]23CC[C@@H](c4cc(-c5c(F)cccc5F)nnc42)C3(C)C)C1 [Compound 150, 3-[5-(2,6-difluorophenyl)-11,11-dimethyl-3,4-diazatricyclo[6.2.1.02,7]undeca-2,4,6-trien-1-yl]-N-(2-hydroxy-2-methyl-propyl)piperidine-1-carboxamide]	7.9
CNC(=O)N1CCO[C@@H]([C@@]23CC[C@@H](c4cc(-c5c(F)cccc5F)nnc42)C3(C)C)C1 [Compound 74, (S)-2-((5R,8R)-3-(2,6-difluorophenyl)-9,9-dimethyl-5,6,7,8-tetrahydro-5,8-methanocinnolin-8-yl)-N-methylmorpholine-4-carboxamide]	24
CC1(C)[C@H]2CC[C@]1(Oc1ncccn1)c1nnc(-c3c(F)cccc3F)cc12 [Compound 14, (5S,8R)-3-(2,6-difluorophenyl)-9,9-dimethyl-8-(pyrimidin-2-yloxy)-5,6,7,8-tetrahydro-5,8-methanocinnoline]	84
CC[C@@H](O[C@@]12CC[C@@H](c3cc(-c4c(F)cccc4F)nnc31)C2(C)C)c1nnc(C)o1 [Compound 20, 2-((R)-1-(((5S,8R)-3-(2,6-difluorophenyl)-9,9-dimethyl-5,6,7,8-tetrahydro-5,8-methanocinnolin-8-yl)oxy)propyl)-5-methyl-1,3,4-oxadiazole]	24.1
CC1(C)[C@H]2CC[C@]1([C@H]1CCCN(C(=O)NC3COC3)C1)c1nnc(-c3c(F)cccc3F)cc12 [Compound 157, 3-[5-(2,6-difluorophenyl)-11,11-dimethyl-3,4-diazatricyclo[6.2.1.02,7]undeca-2,4,6-trien-1-yl]-N-(oxetan-3-yl)piperidine-1-carboxamide]	6.1
